# Laboratory results as given in patent publication US20080076751A1, “Azetidinone Derivatives and Methods of Use Thereof” (priority 2006, published 2008).
# Biological target: T1, human-SP9215 (GPR119) (Homo sapiens, UniProt Q8TDV5)
# T1 construct: expressed in transfected cells
# T1 sequence (Q8TDV5 1-335): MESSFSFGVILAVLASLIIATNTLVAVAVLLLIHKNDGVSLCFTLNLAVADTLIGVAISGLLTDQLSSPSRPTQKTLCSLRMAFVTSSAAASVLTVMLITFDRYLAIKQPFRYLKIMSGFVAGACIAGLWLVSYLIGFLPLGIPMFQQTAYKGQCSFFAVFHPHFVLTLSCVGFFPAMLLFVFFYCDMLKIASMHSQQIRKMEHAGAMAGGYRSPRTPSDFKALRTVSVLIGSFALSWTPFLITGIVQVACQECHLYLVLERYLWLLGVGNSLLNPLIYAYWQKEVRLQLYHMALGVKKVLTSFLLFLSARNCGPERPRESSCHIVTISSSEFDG
# Experiment: GPR119 screening assay (LANCE cAMP, HEK 293 Human clone 3)
# Assay type: cell-based
# Details: HEK 293 Human clone 3, LANCE cAMP; read-out: GPR119 cAMP IC5O
# Protocol: • +100 mg BSA (MP Biomedicals faction V, #103703)=0.1% • +500 μL 1M HEPES (Cellgro #25-060-Cl)=5 mM • +75 μL RO-20 (Sigma B8279; 20 mM stock in DMSO stored in aliquots at −20° C.)=15 μM • (made fresh daily) B84 (N-[4-(methylsulfonyl)phenyl]-5-nitro-6-[4-(phenylthio)-1-piperidinyl]-4-pyrimidinamine, see WO 2004/065380): A 10 mM stock solution of the test compound in DMSO was prepared, aliquoted and stored at −20° C. For Totals—Dilute 1:33.3 in DMSO then 1:50 in Stimulation Buffer=6 μM in 2% DMSO (=3 μM B84 and 1% DMSO final). For Dose Response Curve -3 μL stock+7 μL DMSO+490 μL Stim Buffer=60 μM in 2% DMSO (=30 μM B84 and 1% DMSO final). (made fresh daily). Cell Line Human clone 3: HEK 293 cells stable transfected with human-SP9215 (GPR119)/pcDNA3.1 and also stable for pCRELuc, Stratagene. Cells are maintained in DMEM containing 10% FBS (Invitrogen #02-4006Dk, lot #1272302, heat inactivated), 1×MEM, 1× Pen/Strep, 0.1 mg/mL Hygromycin B, and 0.5 mg/mL G418. Cells are split 1:8 twice per week. cAMP Kit: LANCE™ cAMP 384 kit, Perkin Elmer #AD0263 Compound Dilutions • 1. Add DMSO to vials containing compounds to provide a 1 mg/mL solution. • 2. Dilute compounds to 60 μM in Stimulation buffer. Make ½ log dilutions into stimulation buffer containing 2% DMSO using the epMotion robot. 10 point dose response curve 1 nM to 30 μM. • 3. Compounds are run in quadruplicate, 2 separate dilutions for each, sets 1 and 1a. Assay Procedure • 1. The afternoon before the assay, replace the media in the flask of Human clone 3 cells with Optimem. (Gibco # 11058-021) NOTE: cells should be in culture 6-8 days. • 2. Next morning, pipet the cells gently off the flask using HBSS (at room temperature). • 3. Pellet the cells (1300 rpm, 7 minutes, room temperature) and resuspend in Stimulation Buffer at 2.5×10e6/mL (=5-8,000 cell/6 μL). Add 1:100 dilution of Alexa Fluor 647-anti cAMP antibody (provided in the kit) directly to the cell suspension. • 4. Into white 384-well plates (Matrix) add 6 μL of 2×B84, cmpds or stim buffer for nsb. They all contain 2% DMSO (=1% DMSO final). • Add 6 μL of the cell suspension to the wells. Incubate 30 minutes at room temperature. • For the std curve add 6 μL cAMP std solution diluted in Stim Buffer+2% DMSO according to kit directions (1000-3 nM). Add 6 μL of 1:100 anti-cAMP dilution in Stim Buffer to std wells. • Make Detection Mix according to kit instructions and incubate 15 minutes at room temperature. • Add 12 μL Detection Mix to all the wells.
row,SMILES,IC50
1,CC(C)OC(=O)N1CCC2(CC1)C(=O)N(C(c1ccccc1)c1ccccc1)C2c1ccccc1 (stereo not drawn),2 µM
2,C[C@H](NC(=O)N1CCC2(CC1)C(=O)N(c1ccc(F)cc1)C2c1ccc(F)cc1)c1ccccc1 (stereo partly drawn),4.68 µM

# Results, then the compound that gave them:
row,IC50,SMILES
1,1 µM,COC(=O)c1ccc(N2C(=O)C3(CCN(C(=O)c4ccc5c(c4)OCCCO5)CC3)C2c2ccc(Cl)cc2)cc1 (stereo not drawn)
2,2.28 µM,N#Cc1ccc(N2C(=O)C3(CCN(C(=O)c4ccc5c(c4)OCCCO5)CC3)C2c2ccc(Cl)cc2)cc1 (stereo not drawn)
3,2.72 µM,COC(=O)c1ccc(N2C(=O)C3(CCN(C(=O)c4cc(OC)c(OC)c(OC)c4)CC3)C2c2ccc(Cl)cc2)cc1 (stereo not drawn)
4,3.8 µM,COc1cccc(N2C(=O)C3(CCN(C(=O)c4cc(OC)c(OC)c(OC)c4)CC3)C2c2ccc(Cl)cc2)c1 (stereo not drawn)
5,4.18 µM,O=C(c1ccc2c(c1)OCCCO2)N1CCC2(CC1)C(=O)N(c1ccc([N+](=O)O)cc1)C2c1ccc(Cl)cc1 (stereo not drawn)
6,4.36 µM,COc1cc(C(=O)N2CCC3(CC2)C(=O)N(c2ccc(F)cc2)C3c2ccc(Cl)cc2)cc(OC)c1OC (stereo not drawn)
7,4.4 µM,COc1cc(C(=O)N2CCC3(CC2)C(=O)N(c2cccc(C(F)(F)F)c2)C3c2ccc(Cl)cc2)cc(OC)c1OC (stereo not drawn)
8,4.46 µM,O=C(c1ccc2c(c1)OCCCO2)N1CCC2(CC1)C(=O)N(c1ccc(C(F)(F)F)cc1)C2c1ccc(Cl)cc1 (stereo not drawn)

# Biological target: T2, human NPC1L1 (Homo sapiens, UniProt Q9UHC9)
# T2 construct: expressed in transfected cells; host or cells: HEK-293 (geneticin selection)
# T2 sequence (Q9UHC9 22-1359): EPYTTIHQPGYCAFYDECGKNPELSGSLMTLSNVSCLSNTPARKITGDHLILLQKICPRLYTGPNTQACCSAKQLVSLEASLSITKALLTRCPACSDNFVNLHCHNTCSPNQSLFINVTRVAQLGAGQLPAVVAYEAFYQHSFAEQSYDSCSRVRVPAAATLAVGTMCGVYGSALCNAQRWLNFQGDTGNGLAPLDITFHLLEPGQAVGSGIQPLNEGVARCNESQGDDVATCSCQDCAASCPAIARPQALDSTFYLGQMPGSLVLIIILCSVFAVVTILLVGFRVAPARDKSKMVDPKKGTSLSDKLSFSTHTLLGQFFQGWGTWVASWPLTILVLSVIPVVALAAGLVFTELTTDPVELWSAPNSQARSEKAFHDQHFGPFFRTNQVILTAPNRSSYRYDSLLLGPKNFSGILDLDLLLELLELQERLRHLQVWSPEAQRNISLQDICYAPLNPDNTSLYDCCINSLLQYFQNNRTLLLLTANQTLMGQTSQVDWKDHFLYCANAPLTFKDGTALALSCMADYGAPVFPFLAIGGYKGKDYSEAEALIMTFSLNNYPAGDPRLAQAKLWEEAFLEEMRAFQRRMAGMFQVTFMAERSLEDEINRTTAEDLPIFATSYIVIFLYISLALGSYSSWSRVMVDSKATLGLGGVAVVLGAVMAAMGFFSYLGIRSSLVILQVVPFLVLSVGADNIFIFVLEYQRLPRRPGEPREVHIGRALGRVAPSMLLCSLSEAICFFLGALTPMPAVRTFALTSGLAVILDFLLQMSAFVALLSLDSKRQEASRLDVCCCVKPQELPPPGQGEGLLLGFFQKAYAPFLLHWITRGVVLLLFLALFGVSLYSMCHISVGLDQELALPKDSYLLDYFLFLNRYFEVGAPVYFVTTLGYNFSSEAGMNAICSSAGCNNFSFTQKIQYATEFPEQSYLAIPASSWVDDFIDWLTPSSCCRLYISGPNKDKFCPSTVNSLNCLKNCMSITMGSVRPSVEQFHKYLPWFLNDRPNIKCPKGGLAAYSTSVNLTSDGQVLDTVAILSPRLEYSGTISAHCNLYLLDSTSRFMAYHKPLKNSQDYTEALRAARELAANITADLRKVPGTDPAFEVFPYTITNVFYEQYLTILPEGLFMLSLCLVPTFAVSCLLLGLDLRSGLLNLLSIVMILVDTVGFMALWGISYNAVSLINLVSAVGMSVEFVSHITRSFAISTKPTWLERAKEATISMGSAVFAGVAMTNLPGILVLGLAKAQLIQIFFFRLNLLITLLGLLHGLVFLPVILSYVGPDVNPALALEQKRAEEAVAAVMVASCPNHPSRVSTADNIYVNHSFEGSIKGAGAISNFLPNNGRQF
# Experiment: NPC1L1 binding assay (BODIPY-labeled glucuronidated ezetimibe competition), human
# Details: HEK-293 cells expressing human NPC1L1, 4 hours at 37° C.
# Protocol: HEK-293 cells expressing human NPC1L1 were plated into 384-well black/clear plates (BD Biosciences, Bedford Mass.) for binding experiments the following day. Cell growth media (DMEM, 10% fetal calf serum, 1 mg/mL geneticin, 100 Units/mL penicillin) was aspirated. Cell growth media ([…]) containing 250 nM BODIPY-labeled glucuronidated ezetimibe was added to each well. Cell growth media ([…]) containing the indicated concentration of compound was then added to the wells. Unlabeled glucuronidated ezetimibe ([…]) was used to determine nonspecific binding. The binding reaction was allowed to proceed for 4 hours at 37° C. Subsequently the cell growth media was aspirated and the cells washed once with PBS. The remaining fluorescent labeled glucuronidated ezetimibe bound to the cells was quantified using a FlexStation plate reader (Molecular Devices, Sunnyvale Calif.) to measure fluorescence intensity. Ki values were determined from competition binding curves (n=4 for each point) using Prism and Activity Base software.
row,Ki,SMILES
1,31.2 µM,O=C(NC1CCCC1)N1CCC2(CC1)C(=O)N(c1ccccc1)C2c1ccccc1 (stereo not drawn)
2,26 µM,O=C(NCc1cccc(F)c1)N1CCC2(CC1)C(=O)N(c1ccccc1)C2c1ccccc1 (stereo not drawn)
3,8.64 µM,O=C(Nc1ccccc1Cl)N1CCC2(CC1)C(=O)N(c1ccccc1)C2c1ccccc1 (stereo not drawn)
4,17.6 µM,O=C(NCc1ccccc1Cl)N1CCC2(CC1)C(=O)N(c1ccccc1)C2c1ccccc1 (stereo not drawn)
5,19.7 µM,O=C(NC1CCCCC1)N1CCC2(CC1)C(=O)N(c1ccccc1)C2c1ccccc1 (stereo not drawn)
